Reference: ChEMBL document CHEMBL2429714, “Synthesis and analgesic activity of monoterpenoid-derived 2-aryl-4,4,7-trimethyl-4a,5,8,8a-tetrahydro-4H-benzo[d][1,3]dioxin-8-ols” (Med Chem Res, 2013)

How the values were obtained:
[1] = tested on: Mus musculus; experiment: Analgesic activity in albino mouse assessed as protection against thermal-induced paw licking or jumping behaviour at 10 mg/kg, po administered 1 hr prior to testing by hot plate test relative to control; format: functional
[2] = tested on: Mus musculus; experiment: Analgesic activity in albino mouse assessed as inhibition of abdominal convulsion at 10 mg/kg, po administered 1 hr prior to acetic acid challenge measured at 5 to 8 mins by acetic acid-induced writhing test relative to control; format: functional; details: Abdomen
[3] = tested on: Mus musculus; experiment: Analgesic activity in po dosed albino mouse assessed as protection against acetic acid-induced writhing administered 1 hr prior to prior to acetic acid challenge measured at 5 to 8 mins; format: functional
[4] = Toxicity in po dosed albino mouse; format: organism-based; details: in vivo

CC1=CC[C@@H]2[C@@H](O[C@H](c3ccc(Cl)cc3)OC2(C)C)[C@@H]1O
Activity [1]: 8% | inhibition in vivo at 10 mg/kg [2]: 88% | ED50 [3]: 4.5 mg/kg

CC1=CC[C@@H]2[C@@H](O[C@H](c3ccc(F)cc3)OC2(C)C)[C@@H]1O
Activity [1]: 0% | inhibition in vivo at 10 mg/kg [2]: 40% | LD50 [4]: 1000 mg/kg

CC1=CC[C@@H]2[C@@H](O[C@H](c3ccc(Br)cc3)OC2(C)C)[C@@H]1O
Activity [1]: 33% | inhibition in vivo at 10 mg/kg [2]: 33%

CC1=CC[C@@H]2[C@@H](O[C@H](c3ccc([N+](=O)[O-])cc3)OC2(C)C)[C@@H]1O
Activity [1]: 84% | inhibition in vivo at 10 mg/kg [2]: 65%

CC1=CC[C@@H]2[C@@H](O[C@H](c3cccc(Cl)c3)OC2(C)C)[C@@H]1O
Activity [1]: 36% | inhibition in vivo at 10 mg/kg [2]: 27%

CC1=CC[C@@H]2[C@@H](O[C@H](c3ccc(Cl)c(Cl)c3)OC2(C)C)[C@@H]1O
Activity [1]: 36% | inhibition in vivo at 10 mg/kg [2]: 14%

CC1=CC[C@@H]2[C@@H](O[C@H](c3cccc(F)c3)OC2(C)C)[C@@H]1O
Activity [1]: 0% | inhibition in vivo at 10 mg/kg [2]: 40%

CC1=CC[C@@H]2[C@@H](O[C@H](c3ccc(C(F)(F)F)cc3)OC2(C)C)[C@@H]1O
Activity [1]: 30% | inhibition in vivo at 10 mg/kg [2]: 52%

CC1=CC[C@@H]2[C@@H](O[C@H](c3cccc(Cl)c3)CC2(C)O)[C@@H]1O (mixture of isomers)
Activity [1]: 14% | inhibition in vivo at 10 mg/kg [2]: 26%

O=C([O-])Cc1ccccc1Nc1c(Cl)cccc1Cl.[Na+] [DICLOFENAC SODIUM]
Activity [1]: 64% | inhibition in vivo at 10 mg/kg [2]: 90% | ED50 [3]: 5 mg/kg
